Source: paper PMC10995865 (Virus Research, 2024)

Tests used:
AsfvPolX-DNA complex = AsfvPolX-DNA complex (African swine fever virus, UniProt P42494); assay: biochemical; assay type: binding
AsfvPolX = AsfvPolX (African swine fever virus, UniProt P42494); settings: cited from earlier work
Chain of AsfvPolX (P42494 whole entry, looked up): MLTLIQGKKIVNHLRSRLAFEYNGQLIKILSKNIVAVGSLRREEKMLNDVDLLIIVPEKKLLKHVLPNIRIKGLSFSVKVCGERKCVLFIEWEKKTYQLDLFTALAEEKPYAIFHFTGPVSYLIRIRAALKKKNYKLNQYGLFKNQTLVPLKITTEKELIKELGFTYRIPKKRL

Chain of AsfvPolX-DNA complex (P42494 whole entry, looked up, one chain of several): as the sequence (P42494 whole entry, looked up) above

| Compound | inhibition at 100 µM (AsfvPolX-DNA complex; read-out: Inhibition of AsfvPolX-DNA complex formation) | Effect on AsfvPolX activity (AsfvPolX) | Inhibition of AsfvPolX-DNA complex formation (AsfvPolX-DNA complex; 100 µM) | Inhibition of AsfvPolX activity (AsfvPolX; 100 µM) |
| --- | --- | --- | --- | --- |
| COc1cc(Nc2ncc(F)c(Nc3ccc4c(n3)N(COP(=O)(O)O)C(=O)C(C)(C)O4)n2)cc(OC)c1OC [fostamatinib] | 0% | dose-dependent decrease |  |  |
| pentagastrin |  |  | 0% | 60% |
